Laboratory results taken from ChEMBL document CHEMBL5360657, “Discovery of the TLR7/8 Antagonist MHV370 for Treatment of Systemic Autoimmune Diseases” (ACS Med Chem Lett, 2023).
pIC50: −log10 of the molar value.

Columns and labels:
[1] = molecular target: Voltage-gated inwardly rectifying potassium channel KCNH2 (Homo sapiens, UniProt Q12809); assay: Displacement of [3H]-dofetilite from human ERG (unknown origin); format: toxicity
[2] = Metabolic stability in rat liver microsomes assessed as intrinsic clearance; format: ADME, Microsome; settings: read-out: CLH
[3] = molecular target: T1, Cytochrome P450 3A4 (Homo sapiens, UniProt P08684); assay: Time dependent inhibition of CYP3A4 (unknown origin) assessed as Kobs; format: ADME
T1 sequence (P08684 whole entry): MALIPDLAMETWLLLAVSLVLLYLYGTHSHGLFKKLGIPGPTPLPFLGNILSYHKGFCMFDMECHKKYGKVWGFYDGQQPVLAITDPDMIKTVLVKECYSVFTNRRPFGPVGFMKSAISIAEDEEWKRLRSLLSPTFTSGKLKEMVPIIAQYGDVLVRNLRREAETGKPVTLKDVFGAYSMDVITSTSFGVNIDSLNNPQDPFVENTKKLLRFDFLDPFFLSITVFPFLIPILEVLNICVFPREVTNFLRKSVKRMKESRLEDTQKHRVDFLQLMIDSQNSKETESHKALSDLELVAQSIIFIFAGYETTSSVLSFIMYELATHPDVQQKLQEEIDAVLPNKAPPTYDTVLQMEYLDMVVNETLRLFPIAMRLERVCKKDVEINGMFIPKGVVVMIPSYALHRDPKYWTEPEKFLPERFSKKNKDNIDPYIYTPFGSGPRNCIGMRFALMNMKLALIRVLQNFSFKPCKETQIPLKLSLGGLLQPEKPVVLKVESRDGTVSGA

[4] = molecular target: T2, Toll-like receptor 9 (Homo sapiens, UniProt Q9NR96); assay: Antagonist activity at TLR9 in human PBMC cells assessed as reduction in IFN alpha measured after 20 hrs by AlphaLISA assay; format: cell-based
T2 sequence (Q9NR96 whole entry): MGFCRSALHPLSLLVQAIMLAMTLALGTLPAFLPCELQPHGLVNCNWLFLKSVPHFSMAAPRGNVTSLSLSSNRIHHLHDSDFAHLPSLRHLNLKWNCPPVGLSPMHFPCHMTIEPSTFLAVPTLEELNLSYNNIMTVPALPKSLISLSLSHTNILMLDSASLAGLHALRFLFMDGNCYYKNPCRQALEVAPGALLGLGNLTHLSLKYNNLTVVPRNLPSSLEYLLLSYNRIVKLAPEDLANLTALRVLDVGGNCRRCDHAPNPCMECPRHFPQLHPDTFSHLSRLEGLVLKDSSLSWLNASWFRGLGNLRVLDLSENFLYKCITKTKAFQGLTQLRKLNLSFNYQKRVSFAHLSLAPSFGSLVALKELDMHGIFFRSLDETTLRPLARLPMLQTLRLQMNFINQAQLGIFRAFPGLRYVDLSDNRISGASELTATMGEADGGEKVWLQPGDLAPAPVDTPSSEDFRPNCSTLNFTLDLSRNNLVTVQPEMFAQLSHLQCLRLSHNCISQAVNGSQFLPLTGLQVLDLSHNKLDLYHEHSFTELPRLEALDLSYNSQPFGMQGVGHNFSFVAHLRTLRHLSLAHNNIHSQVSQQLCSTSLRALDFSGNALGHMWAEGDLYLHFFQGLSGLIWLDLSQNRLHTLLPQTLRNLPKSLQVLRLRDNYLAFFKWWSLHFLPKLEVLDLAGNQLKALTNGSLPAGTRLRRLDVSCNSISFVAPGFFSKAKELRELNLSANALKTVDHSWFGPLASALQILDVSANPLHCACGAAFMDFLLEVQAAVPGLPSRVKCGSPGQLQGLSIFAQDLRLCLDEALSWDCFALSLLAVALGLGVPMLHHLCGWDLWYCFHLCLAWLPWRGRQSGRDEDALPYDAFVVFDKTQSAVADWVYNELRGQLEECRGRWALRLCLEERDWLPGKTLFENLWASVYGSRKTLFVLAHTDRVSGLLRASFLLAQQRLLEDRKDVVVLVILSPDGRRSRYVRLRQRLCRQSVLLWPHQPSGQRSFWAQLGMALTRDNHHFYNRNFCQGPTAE

[5] = Metabolic stability in mouse liver microsomes assessed as intrinsic clearance; format: ADME, Microsome; settings: read-out: CLH
[6] = molecular target: T3, Toll-like receptor 8 (Homo sapiens, UniProt Q9NR97); assay: Antagonist activity at TLR8 in human PBMC cells […] assessed as reduction in IL-6 level measured after 20 hrs by AlphaLISA assay; format: cell-based
T3 sequence (Q9NR97 whole entry): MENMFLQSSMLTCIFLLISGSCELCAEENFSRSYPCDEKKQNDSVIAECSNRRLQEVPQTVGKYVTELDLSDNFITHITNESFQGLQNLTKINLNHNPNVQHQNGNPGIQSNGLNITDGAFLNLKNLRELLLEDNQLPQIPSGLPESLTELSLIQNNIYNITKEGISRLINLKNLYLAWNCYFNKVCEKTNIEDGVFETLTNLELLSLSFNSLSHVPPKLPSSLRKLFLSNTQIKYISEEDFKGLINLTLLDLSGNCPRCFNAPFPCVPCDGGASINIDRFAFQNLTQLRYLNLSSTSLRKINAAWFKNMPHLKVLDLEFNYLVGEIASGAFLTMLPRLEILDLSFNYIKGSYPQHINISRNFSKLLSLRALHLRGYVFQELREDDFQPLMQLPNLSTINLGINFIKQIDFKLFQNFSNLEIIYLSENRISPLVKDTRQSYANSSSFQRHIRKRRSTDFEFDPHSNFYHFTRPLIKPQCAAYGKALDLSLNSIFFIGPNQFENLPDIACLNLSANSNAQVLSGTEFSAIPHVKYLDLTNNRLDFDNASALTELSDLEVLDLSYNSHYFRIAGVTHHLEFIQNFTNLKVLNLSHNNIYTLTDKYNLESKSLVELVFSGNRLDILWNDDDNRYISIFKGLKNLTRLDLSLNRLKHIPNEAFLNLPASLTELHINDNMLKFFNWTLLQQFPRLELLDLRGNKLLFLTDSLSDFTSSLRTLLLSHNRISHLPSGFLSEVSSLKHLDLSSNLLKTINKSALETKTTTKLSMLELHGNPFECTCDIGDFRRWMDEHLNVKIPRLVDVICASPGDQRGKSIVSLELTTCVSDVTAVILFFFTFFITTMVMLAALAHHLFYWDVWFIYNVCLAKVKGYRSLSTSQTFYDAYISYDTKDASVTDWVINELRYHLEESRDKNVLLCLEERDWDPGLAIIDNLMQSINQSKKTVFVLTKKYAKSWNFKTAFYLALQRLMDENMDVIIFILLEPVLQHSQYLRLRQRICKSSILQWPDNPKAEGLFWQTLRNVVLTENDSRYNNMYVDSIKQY

[7] = Metabolic stability in human liver microsomes assessed as intrinsic clearance; format: ADME, Microsome; settings: read-out: CLH
[8] = Permeability of the compound by PAMPA; format: ADME
[9] = molecular target: T1, Cytochrome P450 3A4; assay: Inhibition of CYP3A4 (unknown origin); format: ADME

Chain of Voltage-gated inwardly rectifying potassium channel KCNH2 (Q12809 whole entry): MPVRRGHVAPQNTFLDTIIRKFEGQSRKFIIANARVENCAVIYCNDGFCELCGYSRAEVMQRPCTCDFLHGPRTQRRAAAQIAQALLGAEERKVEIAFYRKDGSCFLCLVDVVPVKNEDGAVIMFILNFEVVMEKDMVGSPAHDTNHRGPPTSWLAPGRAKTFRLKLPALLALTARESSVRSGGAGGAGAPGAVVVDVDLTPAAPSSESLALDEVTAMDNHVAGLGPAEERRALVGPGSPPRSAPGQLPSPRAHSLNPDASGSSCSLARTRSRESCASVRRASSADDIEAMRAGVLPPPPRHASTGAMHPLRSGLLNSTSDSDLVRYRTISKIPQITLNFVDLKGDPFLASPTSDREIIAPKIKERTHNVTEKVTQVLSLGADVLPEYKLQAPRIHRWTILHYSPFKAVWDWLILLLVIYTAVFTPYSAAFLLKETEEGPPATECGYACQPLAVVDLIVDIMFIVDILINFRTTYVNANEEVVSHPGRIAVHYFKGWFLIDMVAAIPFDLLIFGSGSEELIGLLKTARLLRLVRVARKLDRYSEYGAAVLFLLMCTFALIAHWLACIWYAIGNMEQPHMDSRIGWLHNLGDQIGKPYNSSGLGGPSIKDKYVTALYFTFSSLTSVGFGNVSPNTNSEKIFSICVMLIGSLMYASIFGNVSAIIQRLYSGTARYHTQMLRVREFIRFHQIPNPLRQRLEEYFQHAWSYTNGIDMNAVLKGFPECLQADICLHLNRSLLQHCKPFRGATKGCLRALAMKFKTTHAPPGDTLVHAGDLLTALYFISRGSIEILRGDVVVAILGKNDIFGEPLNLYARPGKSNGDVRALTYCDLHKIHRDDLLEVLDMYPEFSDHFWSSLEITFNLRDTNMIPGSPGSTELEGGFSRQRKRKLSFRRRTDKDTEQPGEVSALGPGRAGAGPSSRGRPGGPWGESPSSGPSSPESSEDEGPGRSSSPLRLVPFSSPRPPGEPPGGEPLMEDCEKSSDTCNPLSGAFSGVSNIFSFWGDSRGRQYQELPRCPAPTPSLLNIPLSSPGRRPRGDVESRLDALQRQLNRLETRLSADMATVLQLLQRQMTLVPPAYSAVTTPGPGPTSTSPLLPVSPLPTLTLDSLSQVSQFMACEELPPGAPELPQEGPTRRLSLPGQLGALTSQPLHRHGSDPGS

Compound | pIC50 [1] | microsomal CLint [2] [µL/min/mg] | Kobs [3] [min⁻¹] | pIC50 [4] | microsomal CLint [5] [µL/min/mg] | pIC50 [6] | microsomal CLint [7] [µL/min/mg] | log(permeability) [8] | pIC50 [9]
Cc1cc(N2CCc3c(c(C)nn3CC34CCC(NC(=O)[C@@H]5COCCN5)(CC3)CC4)C2)c2cnn(C)c2n1 [MHV-370] | < 4.52 | 17 | 0.006 | 6.00 | 52 | 7.17 | 19 | -5.2 | < 4.30
Cc1cc(N2CCc3c(c(C)nn3CC34CCC(N)(CC3)CC4)C2)c2cnn(C)c2n1 | 4.54 | 36 | 0.002 | 6.24 | 15 | 6.68 | 19 | -5.1 | < 4.30
CCNCC(=O)NC12CCC(Cn3nc(C)c4c3CCN(c3cc(C)nc5c3cnn5C)C4)(CC1)CC2 | < 4.52 | < 15 | 0.01 | 6.09 | 96 | 7.36 | 35 | -5.3 | < 4.30
